Test results as given in article PMC4725915, “Ruthenium(II) Complexes with 2-Phenylimidazo[4,5-f][1,10]phenanthroline Derivatives that Strongly Combat Cisplatin-Resistant Tumor Cells” (Scientific Reports, 2016).

What was measured:
[1] = tested on: LO2; assay: MTT cytotoxicity assay, normal LO2 cells; format: cell-based; details: LO2 normal human cell line, 48 h
Method: Compounds 1–4 were evaluated against three tumor cell lines derived from different tissues, including the cervix (HeLa), lung (A549) and cisplatin-resistant lung (A549R) tissues. For comparison, the cytotoxicity of cisplatin was also evaluated. As a control, the toxicities of the complexes were also tested against the normal human cell line (LO2).
The human cervix carcinoma cell line (HeLa), the lung carcinoma cell lines (A549 and A549R), and the human hepatocyte cell line (LO2) were obtained from the Experimental Animal Center at Sun Yat-Sen University (Guangzhou, China). The cells were maintained in Dulbecco’s modified Eagle’s medium (DMEM, Gibco BRL) or Roswell Park Memorial Institute 1640 (RPMI 1640, Gibco BRL) medium supplemented with 10% fetal bovine serum (FBS, Gibco BRL), 100 μg/mL streptomycin, and 100 U/mL penicillin (Gibco BRL) in a humidified incubator under 5% CO2 and 20% O2 at 37 °C. To maintain the resistant phenotype, A549R cells were incubated with 5 μM cisplatin and cultured in drug-free medium for at least a week before use.
The cytotoxicity of the ruthenium complexes and cisplatin were determined by an MTT assay. Briefly, cells were seeded into 96-well microtiter plates at 1 × 10^4 cells per well and grown overnight at 37 °C in a 5% CO2 incubator; then, different concentrations of the complexes in cell culture medium were added to the cultures. The plates were then incubated in an incubator for 48 h under the same conditions. The stock MTT dye solution (15 μL, 5 mg/mL) was added to each well. After 4 h of incubation, the cultures were removed and 150 μL of DMSO was added to each well. The optical density of each well was measured on a microplate spectrophotometer at a wavelength of 595 nm.

[2] = Distribution coefficient (log Po/w), flask-shaking, n-octanol/phosphate buffer; format: physicochemical; details: n-octanol / phosphate buffer pH 7.4, 37 °C; in words only (Figure S8)
Method: Distribution coefficients (log Po/w) were determined by liquid-liquid extraction between n-octanol (oil) and phosphate buffers (0.2 M, pH 7.4) with the flask-shaking method. N-Octanol and the buffer were mutually saturated with each other for at least 24 h before use. An aliquot of a ruthenium complex stock solution was added to the phosphate buffer concentrations at <10 mg/mL, and the mixture was shaken at 100 rpm for 24 h at 37 °C to allow for adequate partitioning. After the sample was centrifuged at 3000 rpm for 20 min, the aqueous layer was used for ruthenium analysis, and the Ru content in the aqueous layer was measured by ICP-MS and used to calculate the log Po/w.

[3] = tested on: TrxR; assay: TrxR activity assay in A549R cells (DTNB reduction); format: cell-based, human; details: 4.0 μM, 12 h
Text: (§1) The elevated levels of TrxR in cancers, especially in non-small cell lung cancers, are responsible for drug resistance. The thioredoxin system has a significant influence on intracellular physiological processes, such as antioxidant defense, cell functions, cell apoptosis and cell proliferation. TrxR has previously been identified as a drug target. […] In addition, the expression levels of TrxR in A549R cells in response to the addition of complex 4 were also examined by Western blot analysis.
A549R cells (2 × 10^6 cells) treated or untreated with complex 4 for 12 h were homogenized in 100–200 μl of cold assay buffer on ice and a protease inhibitor cocktail was added to the sample; the sample was then centrifuged at 10,000 x g for 15 min at 4 °C. The supernatant was collected for the assay and stored on ice. The protein concentration of each supernatant was determined using the Bradford reagent. A total of 40 μl of the reaction mix (30 μl assay buffer, 8 μl 5, 5′-dithiobis (2-nitrobenzoic) acid (DTNB) solution and 2 μl NADPH) was added to each sample and incubated at 25 °C for 20 min. TrxR catalyzes the reduction of DTNB by NADPH to 5-thio-2-nitrobenzoic acid (TNB2), which generates a strong yellow color (λmax = 412 nm); consequently, the amount of […] was used to monitor the change in absorbance at 412 nm. […]

[4] = tested on: TrxR; assay: Western blot of TrxR expression in A549R cells; format: cell-based, human; details: different concentrations, 12 h
Text: as §1
A549R cells were seeded into 10 cm tissue culture dishes (Corning), incubated for 24 h, and treated with complex 4 for 12 h. The cells were washed with ice-cold PBS and lysed by incubation in radio immune precipitation assay buffer (RIPA) and a protease inhibitor cocktail (Sigma) for 30 min on ice. The lysates were centrifuged at 15000 rpm for 15 min at 4 °C, and the protein concentrations were quantified by a BCA protein assay reagent kit (Sigma). The proteins were separated on precast NuPAGE 4% to 12% polyacrylamide gradient Bis–Tris gels (Invitrogen) under denaturing conditions, transferred to PVDF membranes (Invitrogen), and subjected to Western blot analyses. […] The bound immune complexes were detected using an ECL prime Western blot detection reagent (Amersham Inc., USA). […]

[5] = tested on: A549R cells; assay: Intracellular ROS (DCFH-DA staining); format: cell-based, human; details: 0.5 μM, 12 h
Method: TrxR is a key enzyme in the regulation of the intracellular redox environment. However, cellular oxidative stress is known to trigger the initiation of apoptotic signaling, which results in cell death. Complex 4 was proven to inhibit the activity of TrxR and could induce severe oxidative stress in A549R cells. To assess the capacity of complex 4 to generate intracellular reactive oxygen species (ROS), A549R cells were treated with different concentrations of complex 4 for 12 h and stained with 2′,7′-dichlorofluorescein diacetate (DCFH-DA)[46]. DCFH-DA is an oxidation-sensitive dye that is specifically detected by measuring the enhanced green fluorescent intensity caused by intracellular ROS. This dye was used to quantify the generation of intracellular ROS. […] These findings were further confirmed with flow cytometric analyses (Fig. 5d).
The generation of reactive oxygen species (ROS) in A549R cells was measured using a ROS sensitive fluorescent probe, 2,7-dichlorodihydrofluorescein diacetate (DCFH-DA). […] The levels of intracellular ROS were examined with an inverted fluorescence microscope (Zeiss Axio Observer D1) and flow cytometry (FACSCanto II, BD Biosciences, USA). The excitation wavelength was 485 nm, and the fluorescence was measured at 530 nm. […]

Substance: Ru(phen)(bzq)(tbtfpip)(PF6) [Complex 4]
- IC50 [1]: 6.7 ± 2.4 µM
- log Po/w [2]: largest
- decline of intracellular TrxR activity [3]: approximately 45%
- expression levels of TrxR [4]: downregulated
- intracellular ROS levels [5]: increase in ROS
